Laboratory results taken from US20130289071A1, “TETRAZOLYL-TETRAHYDROPYRIDINE COMPOUNDS FOR INFLAMMATION AND IMMUNE-RELATED USES” (Synta Pharmaceuticals Corp., priority 2010, published 2013).

Key:
[1] = target: T1, CRAC ion channels (ICRAC current), RBL-2H3 cells (Rattus norvegicus, UniProt Q5M848); test: Automated patch clamp (Qpatch) inhibition of ICRAC current in RBL-2H3 cells; assay type: cell-based; settings: 100 nM compound, % ICRAC inhibition
T1 construct: endogenous in cells; host or cells: RBL-2H3 (rat basophilic leukemia) cells
T1 sequence (Q5M848 whole entry): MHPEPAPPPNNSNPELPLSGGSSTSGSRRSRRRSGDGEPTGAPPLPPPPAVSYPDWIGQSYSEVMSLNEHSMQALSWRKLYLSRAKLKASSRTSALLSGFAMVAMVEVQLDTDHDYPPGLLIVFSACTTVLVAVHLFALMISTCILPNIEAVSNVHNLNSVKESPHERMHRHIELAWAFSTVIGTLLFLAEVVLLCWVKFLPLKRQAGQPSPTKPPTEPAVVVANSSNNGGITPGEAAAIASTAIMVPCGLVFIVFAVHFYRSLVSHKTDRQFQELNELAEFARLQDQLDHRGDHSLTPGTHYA
Protocol: Automated patch clamp experiments are conducted with the QPatch 16 (Sophion Bioscience, Ballerup, Denmark) at room temperature (21-25° C.). Immediately following the establishment of giga-seal whole-cell configuration, the cells membrane potential is clamped at 0 mV. Voltage ramps of 50 ms duration spanning the voltage range of −100 to +100 mV are then stimulated at a rate of 0.33 Hz. Currents are filtered at 2.9 kHz and digitized at 200 μs intervals. Capacitive currents and series resistance are determined and corrected before each voltage ramp using the automatic capacitance compensation.
RBL-2H3 are grown in DMEM media supplemented with 10% fetal bovine serum, penicillin 100 U/ml and streptomycin […] in an atmosphere of 95% air/5% CO2. Cells are grown to confluence in 175 cm^2 tissue culture flask. On the experimental day, cells harvested with 0.25% trypsin/0.02% EDTA and resuspended in extracellular solution at density of 5×10^6 cells/ml.
The intracellular solution contains Cs-Glutamate 90 mM; NaCl 8 mM; MgCl2 3 mM; CsCl 20 mM; CsBAPTA 20 mM; HEPES 10 mM; InsP3 0.02 mM; pH=7.2 adjusted with CsOH.
The extracellular solution contains NMDGCl 120 mM; KCl 5.4 mM; CsCl 10 mM; CaCl2 10 mM; MgCl2 1 mM; HEPES 10 mM; Glucose 5.5 mM; at pH=7.4 adjusted with HCl.
ICRAC currents are measured using 50 msec voltage ramps between −100 mV to +100 mV. The voltage ramps are stimulated every 3 seconds for at least 570 seconds. The maximum ICRAC current is allowed to develop for at least 135 seconds. Compounds diluted in extracellular solutions are then applied twice, 30 seconds apart. After incubating the cells with compound for 435 seconds, a reference solution is applied at the end of the experiment. The reference solution is a Ca^2+ free extracellular solution.
Off-line analysis with the Qpatch software is used to plot the current value at −80 mV for each ramp trace against time. The resulting current versus time data is then exported into a Microsoft Excel spreadsheet. The ICRAC membrane currents are separated from the cells basal background currents by either subtracting out the average membrane current values during the first 1-3 traces, or the average membrane current values obtained with the reference solution at the end of the experiment. The % ICRAC inhibition in each cell is calculated by comparing the amount of current just prior to the first compound addition to the amount of current after the cells has been perfused with the compound for at least 400 seconds.

[2] = tested on: IL-2 production; test: Inhibition of IL-2 production (Jurkat/PHA/1% FBS, ELISA); assay type: cell-based; settings: Homo sapiens, Jurkat, 20 h, Jurkat cells, PHA 2.5 μg/mL
Protocol: JurkaT-cells were placed in a 96 well plate (0.5 million cells per well in 1% FBS medium), and then a test compound of this invention was added at different concentrations. After 10 minutes, the cells were activated with PHA (final concentration 2.5 μg/mL) and incubated for 20 hours at 37° C. under 5% CO2. The final volume was 200 μL. Following incubation, the cells were centrifuged, and the supernatants collected and stored at −70° C. prior to assaying for IL-2 production. A commercial ELISA kit (IL-2 Eli-pair, Diaclone Research, Besancon, France) was used to detect production of IL-2, from which dose response curves were obtained. The IC50 value was calculated as the concentration at which 50% of maximum IL-2 production after stimulation was inhibited versus a non-stimulation control.

Structure (SMILES)	inhibition at 0.1 µM [1]	IC50 [2]
CC1=C(c2ccc(NC(=O)c3cnccc3C)cc2)CN(c2nnn(C)n2)CC1 [Compound 47]	70%	62 nM
Cn1nnc(N2CCC(C3CC3)=C(c3cnc(NC(=O)c4cccc(F)c4F)cn3)C2)n1 [Compound 39]	69%	51 nM
CC1=C(c2ccc(NC(=O)c3ccncc3C)cc2)CN(c2nnn(C)n2)CC1 [Compound 46]	54%	60 nM
CC1=C(c2ccc(C(=O)Nc3c(F)cccc3F)cc2)CN(c2nnn(C)n2)CC1 [Compound 41]	60%	54 nM
CC1=C(c2ccc(NC(=O)c3cccc(F)c3C)cc2)CN(c2nnn(C)n2)CC1 [Compound 38]	48%	51 nM
Cc1ccncc1C(=O)Nc1ccc(C2=C(Cl)CCN(c3nnn(C)n3)C2)cc1 [Compound 45]	60%	59 nM

These reach a lower IC50 [2]. Values come first.

inhibition at 0.1 µM [1]	IC50 [2]	Structure (SMILES)
87%	16 nM	CCc1c(F)cncc1C(=O)Nc1ccc(C2=C(C)CCN(c3nnn(C)n3)C2)cc1 [Compound 10]
43%	29 nM	CCC1=C(c2ccc(NC(=O)c3cnccc3C)cc2)CN(c2nnn(C)n2)CC1 [Compound 22]
67%	15 nM	Cn1nnc(N2CCC(C3CC3)=C(c3ccc(NC(=O)c4c(F)cccc4F)cc3)C2)n1 [Compound 9]
68%	37 nM	CCn1nnc(N2CCC(C)=C(c3ccc(NC(=O)c4cncc(F)c4C)cc3)C2)n1 [Compound 27]
74%	18 nM	CC1=C(c2ccc(NC(=O)c3cccc(F)c3F)cc2)CN(c2nnn(C)n2)CC1 [Compound 14]
